Assay results reported in article PMC6362118, “Pharmacophore-guided discovery of CDC25 inhibitors causing cell cycle arrest and tumor regression” (Scientific Reports, 2019).

What was measured:
[1] = biological target: T1, CDC25A (Homo sapiens, UniProt P30304); assay: Enzymatic assay (OMFP substrate) on recombinant CDC25A; type: biochemical
T1 construct: GST (pGEX vector) (N); made in house; host or cells: E. coli BL21
T1 sequence (P30304 1-524): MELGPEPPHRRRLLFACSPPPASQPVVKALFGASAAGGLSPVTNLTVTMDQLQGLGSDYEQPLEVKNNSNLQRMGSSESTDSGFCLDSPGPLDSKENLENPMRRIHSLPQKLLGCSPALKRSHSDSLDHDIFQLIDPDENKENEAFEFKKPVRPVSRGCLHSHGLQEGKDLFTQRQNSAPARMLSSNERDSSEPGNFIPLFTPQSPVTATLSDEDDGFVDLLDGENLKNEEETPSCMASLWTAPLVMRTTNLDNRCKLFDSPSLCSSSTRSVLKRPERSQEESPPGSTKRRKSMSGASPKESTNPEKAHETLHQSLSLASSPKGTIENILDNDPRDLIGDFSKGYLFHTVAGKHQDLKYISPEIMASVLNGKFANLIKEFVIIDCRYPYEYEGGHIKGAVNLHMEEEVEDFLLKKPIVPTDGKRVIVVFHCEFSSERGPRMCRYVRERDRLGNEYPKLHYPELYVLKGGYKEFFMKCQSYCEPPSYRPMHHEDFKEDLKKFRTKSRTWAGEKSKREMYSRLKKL
Method: 57 UPD compounds were dissolved in DMSO at 10 mM stock concentration and stored in
60 Expression and purification of CDC25 phosphatases - CDC25A (kind gift of I.
61 Hoffmann, Heidelberg, Germany), CDC25B and CDC25C (kind gift of B. Gabrielli,
62 Queensland, Australia) in pGEX were expressed in E. coli BL21 cells and purified on 1
63 ml Glutathione Sepharose 4 Fast Flow columns as described 1.
(§1) 65 Enzymatic assays - CDC25A, CDC25B and CDC25C were appropriately diluted in 10
(§2) 66 mM Tris-HCl pH 8.0, 50 mM NaCl and assayed in 20 mM Tris-HCl pH 8.0, 75 mM
(§3) 67 NaCl, 0.5 mM EGTA, 1 mM DTT, 0.1 mg/ml BSA and defined concentrations of
(§4) 68 compounds. Reactions were started by addition of the substrate OMFP (0.1 mM). Assays
(§5) 69 were carried out at room temperature in duplicate or triplicate using transparent-bottom,
(§6) 70 V-shaped 96 well plates and read at defined intervals on a Molecular Devices
(§7) 71 SpectraMax microplate reader (ex: 490 nm / em: 525 nm). IC50 and kinetic parameters
(§8) 72 calculated from Lineweaver-Burk double-reciprocal plots of the data were obtained using
73 GraphPad Prism software. […]

[2] = test system: HeLa cells; assay: Cell viability assay on HeLa cells; type: cell-based; conditions: 48h treatment
Method: (§9) 75 Cell culture - Wild-type HeLa and Kyoto HeLa cells stably expressing mCherry-H2B
(§10) 76 were maintained in DMEM+L-Glutamine (Gibco, Life Technologies, USA)
(§11) 77 supplemented with 5% fetal calf serum (FCS) (Gibco) and penicillin-streptomycin (100
78 U/ml - 100 µg/ml) (Gibco). […]
87 Cell viability assays - Compounds viability upon 48h treatment with the compounds was
88 assessed as described 4. Data were plotted with Prism 7® and analyzed by non-linear
89 regression. Comparison of single curve fitting to all data set within an experiment was
90 performed with the extra sum-of-squares F-test to determine P values. […]

[3] = test system: HeLa cells; assay: Flow cytometric analysis of cell cycle progression (DNA content) in HeLa cells; type: cell-based
Method: Reactions were started by addition of the substrate OMFP (0.1 mM). Assays 69 were carried out at room temperature in duplicate or triplicate using transparent-bottom, 70 V-shaped 96 well plates and read at defined intervals on a Molecular Devices 71 SpectraMax microplate reader (ex: 490 nm / em: 525 nm). IC50 and kinetic parameters 72 calculated from Lineweaver-Burk double-reciprocal plots of the data were obtained using 73 GraphPad Prism software. 74 75 Cell culture - Wild-type HeLa and Kyoto HeLa cells stably expressing mCherry-H2B 76 were maintained in DMEM+L-Glutamine (Gibco, Life Technologies, USA) 77 supplemented with 5% fetal calf serum (FCS) (Gibco) and penicillin-streptomycin (100 […] A549 and Colo741 were grown and maintained like HeLa 79 cells but with 10% FCS. HCT116 were maintained in McCoy's medium supplemented 80 with 10% FCS and penicillin-streptomycin. U2OS-Tet-OFF cells expressing HA-CDC25 81 were grown and maintained in DMEM+L-Glutamine, 10% Tet-free FCS and penicillin- 82 streptomycin in the presence or the absence of 4 μg/ml tetracycline (Sigma, T7660). 83 84 Cell synchronization - Cell synchronization was performed by double thymidine block- 85 release protocol 2 or nocodazole treatment 3 and verified by flow cytometry. 86 87 Cell viability assays - Compounds viability upon 48h treatment with the compounds was 88 assessed as described 4. Data were plotted with Prism 7® and analyzed by non-linear 89 regression. Comparison of single curve fitting to all data set within an experiment was 90 performed with the extra sum-of-squares F-test to determine P values. 91 92 Western blotting - Cell lysis and immunoblot analysis were performed as previously 93 described 5. […] Cells were washed with PBS, resuspended […] To 100 quantify phosphorylation of CDK1 at Tyr15 and H2AX at S139, cells were harvested and 101 examined as described 6. Samples were measured on an AttuneTM NxT Cytometer 102 (ThermoFisher Scientific, Carlsbad, CA, USA) and data were analyzed with FlowJo® 103 software v10 (FlowJo, LLC, Ashland, OR, USA). 104 105 Real Time qRT-PCR - Organoids were lysed in Tri-Reagent (Sigma) as previously 106 described 7 and total RNA was isolated as described by manufacturer's instructions. For […] 108 High Fidelity cDNA Synthesis kit (Roche). Real-time quantitative PCR reactions were 109 performed in three independent biological replicates, each with technical triplicate, using 110 the Applied Biosystems SYBR Green Kit and monitored by the ABI Prism 7900HT 111 system (Applied Biosystem). The following primers were used: 112 Lgr5: Forward [NT] and Reverse 5'- […] 114 Lysozyme: Forward [NT] and Reverse 5'- 115 [NT]3' 116 Cryptdin: Forward [NT] and Reverse 5'- 117 [NT]-binding protein (TBP): Forward [NT] and 119 Reverse [NT] 120 […] 122 amplification curves and the melting temperature analysis of the final amplification […] 4

[4] = test system: HeLa cells; assay: Time-lapse microscopy of mitosis in synchronized HeLa cells; type: cell-based
Method: Cells were grown in 35 mm CellView™ cell culture dishes with glass bottom (# 627870, Greiner-BioOne) at a density of 2.5 × 10^5 cells/ml in a humidified cell incubator maintained at 37 °C and 5% CO2. Cell were viewed by phase contrast microscopy with a 10x objective using an Olympus IX 81 motorized inverted microscope (Olympus, Hamburg, Germany) equipped with external temperature control chamber and CO2 bottle to maintain cells at 37 °C with 5% CO2. Transition through mitosis was documented by acquisition of four frames per hour over a period of 14 h using a CCD camera (Orca AG, Hamamatsu) and cellR® software (Olympus). HeLa-Kyoto cells (mCherry-H2B/EGFP-α-tubulin) were visualized by fluorescence microscopy with an Olympus IX 81 microscope using a 10x objective and selecting Ex. = 492 ± 18 nm/Em. = 535 ± 50 nm for the green channel and Ex. = 572 ± 23 nm/Em. = 645 ± 75 nm for the red channel.

[5] = test system: U2OS Tet-OFF cells expressing HA-CDC25A; assay: Cell viability of U2OS Tet-OFF cells overexpressing HA-CDC25A; type: cell-based; conditions: grown in the absence of tetracycline (HA-CDC25A induced)
Method: as §1, §2, §3, §4, §5, §6, §7, §8
73 GraphPad Prism software.
as §9, §10, §11
78 U/ml - 100 µg/ml) (Gibco). A549 and Colo741 were grown and maintained like HeLa
79 cells but with 10% FCS. HCT116 were maintained in McCoy’s medium supplemented
80 with 10% FCS and penicillin-streptomycin. U2OS-Tet-OFF cells expressing HA-CDC25
81 were grown and maintained in DMEM+L-Glutamine, 10% Tet-free FCS and penicillin- […]
88 assessed as described 4. Data were plotted with Prism 7® and analyzed by non-linear […]

[6] = design: method as in PMID 17970046; conditions: due to rapid metabolism; cited from earlier work

SMILES | remaining activity at 20 µM ([1]; compound 20 µM, relative to DMSO control, read-out: % remaining activity ± SD (Table S2, second round of selection)) [%] | IC50 ([2]; Homo sapiens) [µM] | effect on cell cycle distribution (DNA content) ([3]; asynchronous HeLa cells, 10 μM, 15 h) | effect on the G2/M transition ([3]; double-thymidine synchronized HeLa, 10 μM added 5 h upon release, analysed 12 h post-release) | execution of mitosis (time-lapse) ([4]; HeLa, 10 μM added 5 h upon release from 2x thymidine block, monitored 14 h) | execution of mitosis at low dose (time-lapse) ([4]; synchronized HeLa Kyoto cells (mCherry-H2B, GFP-α-tubulin), 5 μM) | sensitivity of CDC25A overexpressing cells (viability) [5] | mode of action (reversibility) ([1]; pre-incubation at ~3x IC50 (5 μM UPDs, 2 µM NSC663284), 10-fold dilution) | IC50 [2] [µM] | antitumor activity in mice [6]
Cc1c(O)ccc(C2=CC(=O)c3cccc(O)c3C2=O)c1O [UPD-787, 8-hydroxy-2-(2,4-dihydroxy-3-methylphenyl) naphthalene-1,4-dione] | 0.1 ± 0.3 | 0.9 | accumulation of cells at G2/M | accretion of the G2/M peak | could not complete mitotic transition and died before reaching G1 | failed attempt to round up and execute mitosis, which was followed by membrane blebbing and death | remained sensitive | – | – | –
O=C1C(Cl)=C(NCCN2CCOCC2)C(=O)c2ncccc21 [NSC-663284, reference compound] | – | – | – | – | – | – | – | irreversible | 2.57 | minimal antitumor activity
